Data published in patent US6599900B2, “1-oxa-3,9-diaza-spiro[5,5]undecan-2-ones” (Syntex (U.S.A.) LLC, priority 2001, dated 2003).

Target: T1, human NK1 receptor (Homo sapiens, UniProt P25103)
T1 construct: expressed in transfected cells; host or cells: CHO cells infected with the Semliki virus expression system; membrane suspension used
Assay: [3H]substance P binding at human NK1 receptors in CHO cells
Conditions: affinity to the NK-1 receptor; [3H]substance P 0.6 nM displacement, CHO cell membranes, 60 min at room temperature
Method: The affinity of test compounds for the NK1 receptor was evaluated at human NK1 receptors in CHO cells infected with the human NK1 receptor (using the Semliki virus expression system) and radiolabelled with [^3H]substance P (final concentration 0.6 nM). Binding assays were performed in HEPES buffer (50 mM, pH 7.4) containing BSA (0.04%) leupeptin (8 μg/ml), MnCl2 (3 mM) and phosphoramidon (2 μM). Binding assays consisted of 250 μl of membrane suspension (1.25×10^5 cells/assay tube), […] of buffer of displacing agent and 125 μl of [^3H]substance P. Displacement curves were determined with at least seven concentrations of the compound. The assay tubes were incubated for 60 min at room temperature after which time the tube contents were rapidly filtered under vacuum through GF/C filters presoaked for 60 min with PEI (0.3%) with 2×2 ml washes of HEPES buffer (50 mM, pH 7.4). The radioactivity retained on the filters was measured by scintillation counting. All assays were performed in triplicate in at least 2 separate experiments.

T1 sequence (P25103 whole entry): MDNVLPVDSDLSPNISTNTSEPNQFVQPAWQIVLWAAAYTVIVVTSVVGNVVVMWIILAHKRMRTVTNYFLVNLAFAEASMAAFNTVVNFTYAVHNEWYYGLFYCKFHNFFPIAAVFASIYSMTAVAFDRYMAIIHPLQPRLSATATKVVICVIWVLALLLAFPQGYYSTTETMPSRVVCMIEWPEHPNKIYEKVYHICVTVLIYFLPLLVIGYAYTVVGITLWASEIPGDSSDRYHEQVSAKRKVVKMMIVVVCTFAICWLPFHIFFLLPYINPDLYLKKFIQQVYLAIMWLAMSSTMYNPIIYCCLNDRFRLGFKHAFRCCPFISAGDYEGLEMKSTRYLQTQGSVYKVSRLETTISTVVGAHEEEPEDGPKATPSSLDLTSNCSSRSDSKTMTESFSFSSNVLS

SMILES | Ki
O=C1OC2(CCN(C(=O)c3cc(C(F)(F)F)cc(C(F)(F)F)c3)CC2)C(c2ccccc2)CN1CCCN1CCC(O)C1 (racemic) [Example 26, (5RS)-9-(3,5-bis-trifluoromethyl-benzoyl)-3-[3-(3-hydroxy-pyrrolidin-1-yl)-propyl]-5-phenyl-1-oxa-3,9-diaza-spiro[5.5]undecan-2-one] | 4.07 nM
CN(C)CCCN1CC(c2ccccc2)C2(CCN(C(=O)c3cc(C(F)(F)F)cc(C(F)(F)F)c3)CC2)OC1=O (stereo not drawn) [Example 25, (5RS)-9-(3,5-bis-trifluoromethyl-benzoyl)-3-(3-dimethylamino-4-yl-propyl)-5-phenyl-1-oxa-3,9-diaza-spiro[5.5]undecan-2-one] | 3.47 nM
